In experiment [1] the target is T1, HIV-1 RT-associated RNase H function (Human immunodeficiency virus type 1 group M subtype B, UniProt P04585).
T1 construct: The 1:1 ration between the p66/p51 subunits was also verified; His6; made in house; host or cells: E. coli strain M15
Description: HIV-1 DNA polymerase-independent RNase H activity determination (wt RT). The class given is biochemical. As to conditions: for remaining activity at 100 µM: in the presence of 100 µM of the compound, read-out: Percentage of residual enzyme activity (RNase H); for IC50: concentration required to reduce the enzyme activity by 50%, read-out: RnaseH IC50. The procedure: (§1) HIV-1 RT group M subtype B. Heterodimeric RT was expressed essentially as previously described. Briefly, E. coli strain M15 containing the p6HRT-prot vector was grown to an optical density at 600 nm of 0.7 and induced with 1.7 mM isopropyl β-D-1-thiogalactopyranoside (IPTG) for 4 h. Protein purification was carried out with a BioLogic LP system (Biorad), using a combination of immobilised metal affinity and ion exchange chromatography. Cell pellets were resuspended in lysis buffer (50 mM sodium phosphate buffer pH 7.8, containing 0.5 mg/mL lysozyme), incubated on ice for 20 min, and after adding NaCl to a final concentration of 0.3 M, were sonicated and centrifuged at […] for 1 h. The supernatant was loaded onto a Ni^2+-NTA-Sepharose column pre-equilibrated with loading buffer (50 mM sodium phosphate buffer pH 7.8, containing 0.3 M NaCl, 10% glycerol, and 10 mM imidazole) and washed thoroughly with wash buffer (50 mM sodium phosphate buffer pH 6.0, containing 0.3 M NaCl, 10% glycerol, and 80 mM imidazole). RT was eluted with an imidazole gradient in wash buffer (0–0.5 M). Fractions were collected, protein purity was checked by SDS-PAGE and found to be higher than 90%. The 1:1 ration between the p66/p51 subunits was also verified. Enzyme-containing fractions were pooled and diluted 1:1 with 50 mM sodium phosphate buffer pH 7.0, containing 10% glycerol; and then loaded into a Hi-trap heparin HP GE (Healthcare Lifescience) pre-equilibrated with 10 column volumes of loading buffer (50 mM sodium phosphate buffer pH 7.0, containing 10% glycerol and 150 mM NaCl). The column was then washed with loading buffer and the RT was eluted with Elute Buffer 2 (50 mM sodium phosphate pH 7.0, 10% glycerol, 1 M NaCl). Fractions were collected, protein was dialysed and stored in buffer containing 50 mM Tris-HCl pH 7.0, 25 mM NaCl, 1 mM EDTA, and 50% glycerol. Catalytic activities and protein concentrations were determined. Enzyme-containing fractions were pooled and aliquots were stored at −80 °C.
(§2) HIV RT-associated RNase H activity was measured as described[36] using the RNase H inhibitor RDS1759[11] as a control. In 100 µL reaction volume containing 50 mM Tris-HCl buffer pH 7.8, 6 mM MgCl2, 1 mM dithiothreitol (DTT), 80 mM KCl, 0.25 µM hybrid RNA/DNA 5′-GAUCUGAGCCUGGGAGCU-Fluorescin-3′ (HPLC, dry, QC: Mass Check) (available from Metabion) 5′-Dabcyl-AGCTCCCAGGCTCAGATC-3′ (HPLC, dry, QC: Mass Check), increasing concentrations of inhibitor, whose dilution were made in water, and 20 ng of wt RT according to a linear range of dose-response curve. The reaction mixture was incubated for 1 h at 37 °C, stopped by addition of EDTA and products were measured with a multilabel counter plate reader Victor 3 (Perkin Elmer model 1420–051) equipped with filters for 490/528 nm (excitation/emission wavelength).

In the next experiment the test system is HIV-1 integrase. On the set-up: method as in earlier work. As to conditions: cited from earlier work.
In experiment [2] the target is T2, HIV-1 RT-associated RDDP function (Human immunodeficiency virus type 1 group M subtype B, UniProt P04585).
T2 construct: The 1:1 ration between the p66/p51 subunits was also verified; His6; made in house; host or cells: E. coli strain M15
Description: HIV-1 RNA-dependent DNA polymerase (RDDP) activity determination. The class given is biochemical. The note with it: for remaining activity at 100 µM: read-out: Percentage of residual enzyme activity (RDDP); for IC50: wt RT. As to the method: as §1
RNA-dependent DNA polymerase (RDDP) activity was measured as described[37] using the NNRTI Efavirenz as a control. In 25 µL volume containing 60 mM Tris-HCl buffer pH 8.1, 8 mM MgCl2, 60 mM KCl, 13 mM DTT, 2.5 µM poly (A)- oligo (dT), 100 µM dTTP, increasing concentrations of inhibitor, whose dilution were made in water, and 6 ng of wt RT according to a linear range of dose-response curve. After enzyme addition, the reaction mixture was incubated for 30 min at 37 °C and the stopped by addition of EDTA. Reaction products were detected by picogreen addition and measured with a multilabel counter plate reader Victor 3 (Perkin Elmer model 1420–051) equipped with filters for 502/523 nm (excitation/emission wavelength).

The target in experiment [3] is T3, HIV-1 RT R448A, RNase H function (Human immunodeficiency virus type 1 group M subtype B, UniProt P04585, R1035A).
T3 construct: introduce amino acid substitutions into the p66 HIV-1 RT subunit coded in a p6HRT- prot plasmid; His6; made in house; host or cells: E. coli strain M15
Description: RNase H inhibition on mutated RT R448A. The class given is biochemical. As to the method:
as §2
(§3) The QuikChange mutagenesis kit (Agilent Technologies Inc., Santa Clara, CA) was used to introduce amino acid substitutions into the p66 HIV-1 RT subunit coded in a p6HRT- prot plasmid by following the manufacturer’s instructions.
(§4) In order to verify this hypothesis, it was chosen to perform site-directed mutagenesis, determining the independent impact of several amino acid substitutions on the potency of the compound to inhibit the RNase H function. All the selected aminoacids are localised in the RNase H domain and are potentially crucial for the binding of RNase H function inhibitors. […]

Experiment [4] concerns HIV-1 RT R448A, RNase H function. Description: RNase H inhibition on mutated RT R448A. The class given is biochemical. As to conditions: RNase H IC50 ratio mutant/wt. The procedure:
as §2, §3, §4

The target of experiment [5] is T4, HIV-1 RT R557A, RNase H function (Human immunodeficiency virus type 1 group M subtype B, UniProt P04585, R1144A).
T4 construct: introduce amino acid substitutions into the p66 HIV-1 RT subunit coded in a p6HRT- prot plasmid; His6; made in house; host or cells: E. coli strain M15
Description: RNase H inhibition on mutated RT R557A. The class given is biochemical. The procedure:
as §2, §3, §4

The subject of experiment [6] is HIV-1 RT R557A, RNase H function. In words: RNase H inhibition on mutated RT R557A. The format is biochemical. As to conditions: RNase H IC50 ratio mutant/wt. The procedure: as §2, §3, §4
The target in experiment [7] is T5, HIV-1 RT A502F, RNase H function (Human immunodeficiency virus type 1 group M subtype B, UniProt P04585, A1089F).
T5 construct: introduce amino acid substitutions into the p66 HIV-1 RT subunit coded in a p6HRT- prot plasmid; His6; made in house; host or cells: E. coli strain M15
In words: RNase H inhibition on mutated RT A502F. The format is biochemical.
Description: (§5) HIV RT-associated RNase H activity was measured as described[36] using the RNase H inhibitor RDS1759[11] as a control. In 100 µL reaction volume containing 50 mM Tris-HCl buffer pH 7.8, 6 mM MgCl2, 1 mM dithiothreitol (DTT), 80 mM KCl, 0.25 µM hybrid RNA/DNA 5′-[sequence]-Fluorescin-3′ (HPLC, dry, QC: Mass Check) (available from Metabion) 5′-Dabcyl-[sequence]-3′ (HPLC, dry, QC: Mass Check), increasing concentrations of inhibitor, whose dilution were made in water, and 20 ng of wt RT according to a linear range of dose-response curve. The reaction mixture was incubated for 1 h at 37 °C, stopped by addition of EDTA and products were measured with a multilabel counter plate reader Victor 3 (Perkin Elmer model 1420–051) equipped with filters for 490/528 nm (excitation/emission wavelength).
(§6) The next mutation involved the residue A502 located in the alpha helix, close to the second identified allosteric binding pocket. […] A502 residue was replaced by a phenylalanine with the aim to provoke a shift of alpha helix that might reduce the space between the two subunits p51 and p66 and therefore hinder the entrance of the compound in the pocket.

The subject of experiment [8] is HIV-1 RT A502F, RNase H function. In words: RNase H inhibition on mutated RT A502F. The format is biochemical. The note with it: RNase H IC50 ratio mutant/wt.
Description: as §5, §6
For experiment [9], the target named is T6, HIV-1 RT A508V, RNase H function (Human immunodeficiency virus type 1 group M subtype B, UniProt P04585, A1095V).
T6 construct: introduce amino acid substitutions into the p66 HIV-1 RT subunit coded in a p6HRT- prot plasmid; His6; made in house; host or cells: E. coli strain M15
In words: RNase H inhibition on mutated RT A508V. The format is biochemical. The procedure:
as §2, §3, §4

In experiment [10] the target is HIV-1 RT L503F, RNase H function (Human immunodeficiency virus 1, UniProt P04585, L1090F). Description: RNase H inhibition on mutated RT L503F. The format is biochemical. As to conditions: row printed L503F. The procedure:
as §2, §3, §4

The target of experiment [11] is T7, HIV-1 RT V108F, RNase H function (Human immunodeficiency virus type 1 group M subtype B, UniProt P04585, V695F).
T7 construct: introduce amino acid substitutions into the p66 HIV-1 RT subunit coded in a p6HRT- prot plasmid; His6; made in house; host or cells: E. coli strain M15
Description: RNase H inhibition on mutated RT V108F. The class given is biochemical. As to the method:
as §2, §3, §4

[12] abbreviates: in the presence of 100 µM of the compound.

The structures appear in SMILES notation. A value given as a limit tells only on which side of the number the result lay.

Usually IC50 stands for the concentration that inhibits the measured activity by half.

For `COc1ccc(-c2cc(=O)c3c(O)c(OC)c(OC)cc3o2)cc1` [Compound 1, salvigenin], the remaining activity at 100 µM in experiment [1] was found to be 80%. Moreover, the half-maximal inhibitory concentration (IC50) in [1] (wt RT) was more than 100 µM.
In the case of `COc1cc2oc(-c3ccc(O)cc3)cc(=O)c2c(O)c1OC` [Compound 2, cirsimaritin], in experiment [1] (wt RT), the “decrease in RNase H inhibitory activity relative to cirsiliol (3)” value was found to be 10 folds and the IC50 amounted to 89 ± 7 µM.
Turning to `COc1cc2oc(-c3ccc(O)c(O)c3)cc(=O)c2c(O)c1OC` [Compound 3, cirsiliol], the IC50 in experiment [1] (wt RT) was 8.2 ± 0.6 µM. Moreover, the “concentration inhibiting HIV-1 integrase” value in the experiment on HIV-1 integrase was 12 µM.
`CC(=O)OCC12C(O)CC(C)C3(CC(c4ccoc4)OC3=O)C1CCC(=O)C21CO1` (stereo not shown) [Compound 4, teuflavin]: the remaining activity at 100 µM in experiment [1] was 80%. Moreover, the IC50 in experiment [1] (wt RT) was more than 100 µM.
Regarding `CC(=O)OCC1=C2C(COC3OC(CO)C(O)C(O)C3OC(C)=O)CC(C)C3(CC(c4ccoc4)OC3=O)C2CCC1` (stereo not shown) [Compound 5, teuflavoside], the remaining activity at 100 µM in experiment [1] worked out at 74%. For the same compound, the IC50 in experiment [1] (wt RT) was more than 100 µM.
As for `CC(=O)OCC1=CCCC2C1=CCC(C)C21CC(c2ccoc2)OC1=O` (stereo not shown) [Compound 6, Flavuglaucin A], in experiment [1] (wt RT), the “folds less active on RNase H than flavuglaucin B (7)” value is on record as “about two”. The values for the half-inhibitory concentration (IC50) in experiment [1] (wt RT) and in experiment [2] were 20.2 ± 2 µM and more than 100 µM, respectively. Further, the remaining activity at 100 µM in experiment [2] (setting [12]) was found to be 80%.
For the compound `CC1CC=C2C(CO)=CCCC2C12CC(c1ccoc1)OC2=O` (stereo not shown) [Compound 7, Flavuglaucin B], the half-inhibitory concentration (IC50) in [1] (wt RT) is 9.1 ± 0.2 µM; in experiment [2], more than 100 µM; in experiment [3] it was 49.7 µM; in experiment [5], 59.2 µM; in experiment [7], 32.8 µM; in [9], more than 100 µM. The half-inhibitory concentration (IC50) in experiment [10] is 27.3 µM. Further, in experiment [2] (setting [12]), the “Percentage of residual enzyme activity (RDDP)” value was 80%. Besides, the “loss in potency, R448A vs wild type” value in experiment [4] is given as 5.5 fold. Further, the “loss in potency, R557A vs wild type” value in experiment [6] was 6.5 fold. Moreover, the “loss in potency, A502F vs wild type” value in experiment [8] was 3.5 fold. The “change of RNase H IC50 against V108F compared with the wild type enzyme” value in [11] was “slight increase in IC50”.
Consider `CC1=C2CCC(C)C3(CC(c4ccoc4)OC3=O)C2CCC1=O` (stereo not shown) [Compound 8, Flavuglaucin C], for which, in [1] (wt RT), the “folds less active on RNase H than flavuglaucin B (7)” value is “about six” and the IC50 was found to be 52.4 ± 0.4 µM. The remaining activity at 100 µM in experiment [2] (setting [12]) was 80%. Further, the IC50 in experiment [2] is more than 100 µM.
The matching figures for `CC1CCC2=C(C=O)CCCC2C12CC(c1ccoc1)OC2=O` (stereo not shown) [Compound 9]: “four”, 36.4 ± 0.4 µM, 80% and more than 100 µM.

The values are drawn from paper PMC7952052, “Flavonoids and Acid-Hydrolysis derivatives of Neo-Clerodane diterpenes from Teucrium flavum subsp. glaucum as inhibitors of the HIV-1 reverse transcriptase–associated RNase H function” (Journal of Enzyme Inhibition and Medicinal Chemistry, 2021).
